From ChEMBL document CHEMBL3792317, “Novel tetrazoloquinoline-rhodanine conjugates: Highly efficient synthesis and biological evaluation” (Bioorg Med Chem Lett, 2016) come the findings set out here.

The nature of data set [1]: Selectivity index, ratio of GI50 for human THP1 cells to MIC for Mycobacterium bovis BCG ATCC 35743. Type of data set: toxicity, cell-based, THP-1. The following applies: read-out: Selectivity Index.
In data set [2] the test system is Mycobacterium bovis BCG str. ATCC 35743. Put plainly: Antitubercular activity against dormant Mycobacterium bovis BCG ATCC 35743 incubated for 40 mins by XTT Reduction Menadione Assay. Type of data set: functional. (In general: Tetrazolium assays rely on reduction of a dye to a coloured formazan, in cell work by metabolically active cells.)
A short description of data set [3]: Selectivity index, ratio of GI50 for human THP1 cells to MIC for Mycobacterium tuberculosis H37Ra ATCC 25177. The class given is toxicity, cell-based, THP-1. Conditions: read-out: Selectivity Index.
Data set [4] can be described thus: (§1) Cytotoxicity against human HeLa cells after 48 hrs by MTT assay. The class given is cell-based. The following applies: HeLa cells.
Data set [5] in a line: (§2) Cytotoxicity against human A549 cells after 48 hrs by MTT assay. Type of data set: cell-based. Conditions: A549 cells.
Data set [6] is described as follows: Selectivity index, ratio of GI50 for human A549 cells to MIC for Mycobacterium tuberculosis H37Ra ATCC 25177. Type of data set: toxicity, cell-based. Conditions: read-out: Selectivity Index.
The subject of data set [7] is Mycobacterium tuberculosis. Put plainly: Antitubercular activity against Mycobacterium tuberculosis H37Ra ATCC 25177 incubated for 40 mins by XTT Reduction Menadione Assay. Type of data set: functional. Conditions: H37Ra ATCC 25177, 40 min.
A short description of data set [8]: Cytotoxicity against human THP1 cells after 48 hrs by MTT assay. The following applies: for GI50 at 48 h: THP1 cells. Type of data set: cell-based, THP-1.
Data set [9] relates to Mycobacterium tuberculosis. Put plainly: Antitubercular activity against active Mycobacterium tuberculosis H37Ra ATCC 25177 incubated for 40 mins by XTT Reduction Menadione Assay. The class given is functional. The following applies: H37Ra ATCC 25177, 40 min.
The subject of data set [10] is Mycobacterium tuberculosis. Put plainly: Antitubercular activity against dormant Mycobacterium tuberculosis H37Ra ATCC 25177 incubated for 40 mins by XTT Reduction Menadione Assay. Type of data set: functional. Conditions: H37Ra ATCC 25177, 40 min.
A short description of data set [11]: Cytotoxicity against human PANC1 cells after 48 hrs by MTT assay. The class given is cell-based, PANC-1. Conditions: for GI50 at 48 h: PANC1 cells.
Data set [12] is described as follows: Selectivity index, ratio of GI50 for human HeLa cells to MIC for Mycobacterium bovis BCG ATCC 35743. The class given is toxicity, cell-based. Conditions: read-out: Selectivity Index.
Data set [13] in a line: Selectivity index, ratio of GI50 for human PANC1 cells to MIC for Mycobacterium bovis BCG ATCC 35743. Conditions: read-out: Selectivity Index. The class given is toxicity, cell-based, PANC-1.
A short description of data set [14]: Selectivity index, ratio of GI50 for human HeLa cells to MIC for Mycobacterium tuberculosis H37Ra ATCC 25177. The following applies: read-out: Selectivity Index. Type of data set: toxicity, cell-based.
Data set [15] can be described thus: Selectivity index, ratio of GI50 for human PANC1 cells to MIC for Mycobacterium tuberculosis H37Ra ATCC 25177. The class given is toxicity, cell-based, PANC-1. Conditions: read-out: Selectivity Index.
Data set [16] can be described thus: Antitubercular activity against Mycobacterium bovis BCG ATCC 35743 incubated for 40 mins by XTT Reduction Menadione Assay. Conditions: Mycobacterium tuberculosis variant bovis BCG, ATCC 35743, 40 min. Type of data set: functional, Mycobacterium bovis BCG str. ATCC 35743.
Data set [17] in a line: Selectivity index, ratio of GI50 for human A549 cells to MIC for Mycobacterium bovis BCG ATCC 35743. The following applies: read-out: Selectivity Index. The class given is toxicity, cell-based.
In data set [18] the test system is Mycobacterium bovis BCG str. ATCC 35743. Put plainly: Antitubercular activity against active Mycobacterium bovis BCG ATCC 35743 incubated for 40 mins by XTT Reduction Menadione Assay. The class given is functional.
Another data set deals with HeLa. The description is as §1. Type of data set: cell-based. Conditions: hela, 48 h.
The test system of another data set is A549. The data set is described as §2. Type of data set: cell-based. The following applies: a549, 48 h.
In another data set the test system is Aspergillus flavus. Put plainly: Antifungal activity against Aspergillus flavus NCIM 539 after 48 hrs by agar cup plate method. Type of data set: functional. The following applies: NCIM 539, 48 h.
In another data set the test system is Candida albicans. Put plainly: Antifungal activity against Candida albicans NCIM 3471 after 48 hrs by agar cup plate method. Type of data set: functional. The following applies: NCIM 3471, 48 h.
Data set [19] deals with Mycobacterium bovis BCG str. ATCC 35743. Kind of data set: Antitubercular activity against dormant Mycobacterium bovis BCG ATCC 35743 at 10 ug/ml incubated for 40 mins by XTT Reduction Menadione Assay. Type of data set: functional.
In the next data set the test system is Escherichia coli. Put plainly: Antibacterial activity against Escherichia coli after 18 hrs by broth dilution method. The class given is functional. A general note: Broth dilution looks for growth in wells or tubes with falling amounts of substance.
Data set [20] relates to Mycobacterium tuberculosis. Put plainly: Antitubercular activity against Mycobacterium tuberculosis H37Ra ATCC 25177 at 10 ug/ml incubated for 40 mins by XTT Reduction Menadione Assay. The class given is functional. The following applies: H37Ra ATCC 25177, 40 min, read-out: GI.
Another data set has as its system Bacillus subtilis. Kind of data set: Antibacterial activity against Bacillus subtilis after 18 hrs by broth dilution method. Type of data set: functional.
The subject of another data set is Cryptococcus neoformans. Kind of data set: Antifungal activity against Cryptococcus neoformans NCIM 576 after 48 hrs by agar cup plate method. Type of data set: functional. Conditions: NCIM 576, 48 h.
The subject of data set [21] is Fusarium oxysporum. Put plainly: Antifungal activity against Fusarium oxysporum NCIM 1332 after 48 hrs by agar cup plate method. Type of data set: functional. Conditions: NCIM 1332, 48 h.
Data set [22] deals with Mycobacterium bovis BCG str. ATCC 35743. Kind of data set: Antitubercular activity against dormant Mycobacterium bovis BCG ATCC 35743 at 30 ug/ml incubated for 40 mins by XTT Reduction Menadione Assay. The class given is functional.
Data set [23] has the same test system. Kind of data set: Antitubercular activity against dormant Mycobacterium bovis BCG ATCC 35743 at 3 ug/ml incubated for 40 mins by XTT Reduction Menadione Assay. The class given is functional.
Another data set concerns Pseudomonas fluorescens. Kind of data set: Antibacterial activity against Pseudomonas fluorescens after 18 hrs by broth dilution method. Type of data set: functional.
A further data set relates to Staphylococcus aureus. Put plainly: Antibacterial activity against Staphylococcus aureus after 18 hrs by broth dilution method. The class given is functional.
A further data set concerns Aspergillus niger. Put plainly: Antifungal activity against Aspergillus niger NCIM 1196 after 48 hrs by agar cup plate method. The class given is functional. The following applies: NCIM 1196, 48 h.
The test system of data set [24] is Mycobacterium tuberculosis. Kind of data set: Antitubercular activity against Mycobacterium tuberculosis H37Ra ATCC 25177 at 3 ug/ml incubated for 40 mins by XTT Reduction Menadione Assay. Type of data set: functional. The following applies: H37Ra ATCC 25177, 40 min, read-out: GI.
In data set [25] the test system is Mycobacterium tuberculosis. Kind of data set: Antitubercular activity against Mycobacterium tuberculosis H37Ra ATCC 25177 at 30 ug/ml incubated for 40 mins by XTT Reduction Menadione Assay. Conditions: H37Ra ATCC 25177, 40 min, read-out: GI. Type of data set: functional.
Data set [26] has as its system Fusarium oxysporum. Kind of data set: Antifungal activity against Fusarium oxysporum NCIM 1332 up to 200 ug/ml after 48 hrs by agar cup plate method. The class given is functional, organism-based.

SMILES strings stand for the structures. ≈ marks a conversion by molar mass, not a printed value. Calls of active or inactive are those of the source. The rule behind the calls is not given here.

`CO[C@H]1/C=C/O[C@@]2(C)Oc3c(C)c(O)c4c(O)c(c(/C=N/N5CCN(C)CC5)c(O)c4c3C2=O)NC(=O)/C(C)=C\C=C\[C@H](C)[C@H](O)[C@@H](C)[C@@H](O)[C@@H](C)[C@H](OC(C)=O)[C@@H]1C` [RIFAMPIN]: the selectivity ratio in data set [1] is above 112; in data set [3], above 139; in data set [6], above 139; in [12] it was above 112; in [13], above 112; in data set [14], above 139. The selectivity ratio was above 139 in data set [15] and above 112 in data set [17]. Also, the IC90 (usually the concentration at which the effect reaches the 90% level) worked out at 0.89 µg/mL (≈ 1.08 µM) in data set [2], 0.05 µg/mL (≈ 0.0608 µM) in data set [9], 0.72 µg/mL (≈ 0.875 µM) in data set [10] and 0.061 µg/mL (≈ 0.0741 µM) in data set [18]. Further, the GI50 at 48 h in data set [4], in data set [5], in [8] and in data set [11] was above 100 µg/mL each time. The MIC (commonly the lowest concentration found to suppress growth) was determined as 0.72 µg/mL (≈ 0.875 µM) in data set [7] and 0.89 µg/mL (≈ 1.08 µM) in [16].

As to `Cc1ccc2cc(/C=C3\SC(=S)NC3=O)c3nnnn3c2c1`, the selectivity ratio in data set [1] came out at 49.8; in data set [3], 22.2; in [6], 22.2; in data set [12] it was 49.8; in data set [13], 49.8; in data set [14], 22.2. For the same compound, the selectivity ratio was determined as 22.2 in data set [15] and 49.8 in data set [17]. Besides, the IC90 was found to be 2.01 µg/mL (≈ 6.14 µM) in data set [2], 5.5 µg/mL (≈ 16.8 µM) in data set [9], 4.5 µg/mL (≈ 13.7 µM) in data set [10] and 2.25 µg/mL (≈ 6.87 µM) in data set [18]. Further, the GI90 was above 100 µg/mL in the data set with HeLa; above 100 µg/mL in the data set with A549; above 100 µg/mL in data set [8] (thp-1, 48 h); above 100 µg/mL in data set [11] (panc-1, 48 h). Besides, the GI50 at 48 h in data set [4], in data set [5], in [8] and in [11] was above 100 µg/mL each time. The MIC against Aspergillus flavus turned out to be 125 µg/mL (≈ 382 µM); in the data set on Candida albicans, 150 µg/mL (≈ 458 µM); in [7], 4.5 µg/mL (≈ 13.7 µM); with Escherichia coli, 208 µg/mL (≈ 636 µM); in the data set on Bacillus subtilis, 188 µg/mL (≈ 574 µM); in the data set with Cryptococcus neoformans, 100 µg/mL (≈ 305 µM). Moreover, the MIC in the data set with Fusarium oxysporum [21] came to 150 µg/mL (≈ 458 µM); in the data set on Pseudomonas fluorescens, 211 µg/mL (≈ 643 µM); against Staphylococcus aureus it was 205 µg/mL (≈ 626 µM); against Aspergillus niger, 100 µg/mL (≈ 305 µM); in [16] it was 2.01 µg/mL (≈ 6.14 µM). The growth inhibition (GI) in data set [19] stood at 100%; in data set [22], 97.8%; in data set [23] it was 100%. For the same compound, in [20], the inhibition of growth at 10 µg/mL worked out at 99.7%. Further, the inhibition of growth at 3 µg/mL in [24] turned out to be 82.9%. Besides, in [25], the inhibition of growth at 30 µg/mL was 98%.

Turning to `COc1ccc2c(c1)cc(/C=C1\SC(=S)NC1=O)c1nnnn12`, the MIC in the data set on Aspergillus flavus is 150 µg/mL (≈ 437 µM); in the data set on Candida albicans, 150 µg/mL (≈ 437 µM); in data set [7] it was above 250 µg/mL; in the data set with Escherichia coli, 198 µg/mL (≈ 577 µM); in the data set on Bacillus subtilis, 96.8 µg/mL (≈ 282 µM); in the data set with Cryptococcus neoformans it was 150 µg/mL (≈ 437 µM). In addition, the MIC was 169 µg/mL (≈ 493 µM) with Pseudomonas fluorescens, 144 µg/mL (≈ 419 µM) with Staphylococcus aureus, 100 µg/mL (≈ 291 µM) against Aspergillus niger and above 250 µg/mL in [16]. For the same compound, the growth inhibition (GI) in data set [19] came to 17.1%; in [22], 32.5%; in [23] it was 12.5%. Moreover, the inhibition of growth at 10 µg/mL in [20] was 17.6%. In the data set with Fusarium oxysporum [26], the MIC entry was “inactive”. For the same compound, the inhibition of growth at 3 µg/mL in [24] was 18.9%. The inhibition of growth at 30 µg/mL in [25] was -5.72%.
